According to PubChem BioAssay AID1259407 (Chemical Carcinogenesis Research Information System (CCRIS), 2018):
The source made the active and inactive calls. No rule for the calls is given here.

Test system: CCRIS mutagenicity, Ames/micronucleus/aberration tests
Experiment: CCRIS mutagenicity studies
Settings: Test System: AMES SALMONELLA TYPHIMURIUM

Which mutagenic call (Strain/Indicator: TA100, Metabolic Activation: HAMSTER, LIVER, S-9, AROCLOR 1254 (10%), Method: PREINCUBATION) does the source give for `ClC(Cl)(Cl)C1CO1` (stereo unspecified) here?
The mutagenic call was “active; positive”.

What about the mutagenic call (Strain/Indicator: TA100, Metabolic Activation: NONE, Method: PREINCUBATION) of the same molecule?
The mutagenic call was “active; positive”.

What about the mutagenic call (Strain/Indicator: TA100, Metabolic Activation: NONE, Method: STANDARD PLATE) of the same molecule?
Its mutagenic call is “active; positive”.

And the mutagenic call (Strain/Indicator: TA100, Metabolic Activation: RAT, LIVER, S-9, AROCLOR 1254 (10%), Method: PREINCUBATION)?
Its mutagenic call is “active; positive”.

What about the mutagenic call (Strain/Indicator: TA104, Metabolic Activation: NONE, Method: STANDARD PLATE) of the same molecule?
The mutagenic call was “active; positive”.

And the mutagenic call (Strain/Indicator: TA1535, Metabolic Activation: HAMSTER, LIVER, S-9, AROCLOR 1254 (10%), Method: PREINCUBATION)?
Its mutagenic call is “inactive; negative”.

And the mutagenic call (Strain/Indicator: TA1535, Metabolic Activation: NONE, Method: PREINCUBATION)?
Its mutagenic call is “active; positive”.

What about the mutagenic call (Strain/Indicator: TA1535, Metabolic Activation: RAT, LIVER, S-9, AROCLOR 1254 (10%), Method: PREINCUBATION) of the same molecule?
Its mutagenic call is “inactive; negative”.

And the mutagenic call (Strain/Indicator: TA4001, Metabolic Activation: NONE, Method: STANDARD PLATE)?
Its mutagenic call is “active; positive”.

What about the mutagenic call (Strain/Indicator: TA4006, Metabolic Activation: NONE, Method: STANDARD PLATE) of the same molecule?
The mutagenic call was “active; positive”.

For `c1ccc(-c2ccncc2)nc1`, which mutagenic call (Strain/Indicator: TA97, Metabolic Activation: RAT, LIVER, S-9, PHENOBARBITAL, Method: STANDARD PLATE) is on record?
Its mutagenic call is “inactive; negative”.

And the mutagenic call (Strain/Indicator: TA98, Metabolic Activation: RAT, LIVER, S-9, PHENOBARBITAL, Method: STANDARD PLATE)?
Its mutagenic call is “active; positive”.

What about the mutagenic call (Strain/Indicator: TA100, Metabolic Activation: RAT, LIVER, S-9, PHENOBARBITAL, Method: STANDARD PLATE) of the same molecule?
Its mutagenic call is “inactive; negative”.

What about the mutagenic call (Strain/Indicator: TA1535, Metabolic Activation: RAT, LIVER, S-9, PHENOBARBITAL, Method: STANDARD PLATE) of the same molecule?
The mutagenic call was “inactive; negative”.

And the mutagenic call (Strain/Indicator: TA1537, Metabolic Activation: RAT, LIVER, S-9, PHENOBARBITAL, Method: STANDARD PLATE)?
Its mutagenic call is “active; positive”.

What about the mutagenic call (Strain/Indicator: TA1538, Metabolic Activation: RAT, LIVER, S-9, PHENOBARBITAL, Method: STANDARD PLATE) of the same molecule?
Its mutagenic call is “inactive; negative”.
